In series [1] the test system is primary rat cortical neurons. As to the kind of experiment: LDH cytotoxicity in primary rat cortical neurons. The series is classed as cell-based. The note with it: 0.01 nM to 1 μM, 72 hr. The method, then:
A density of 5×10^5 of primary rat cortical neurons were seeded on culture dish and individually cultured in medium containing 0.01, 0.1, 1, 5, 10, 50, 100, 250, 500, 750, and 1000 nM of P3V8 peptide (transfected with DeliverX). The lactate dehydrogenase (LDH) cytotoxicity activity was measured 72 hr post-treatment. Fold change of LDH activity was normalized to untreated cells. Data are expressed as mean±S.E.M. for 3 independent experiments. NS indicates no significance.
The LDH cytotoxicity activity was measured 72 hr posttreatment. Fold change of LDH activity was normalized to untreated cells. Data are expressed as mean±S.E.M. for 3 independent experiments. NS indicates no significance.
Because of the aim to develop P3V8 into a potent inhibitor that targets RNA toxicity in degenerating cells within the nervous system, it was assessed whether P3V8 had deleterious effects on neuronal cells by determining lactate dehydrogenase release in the culturing medium of rat cortical neurons.

Another series deals with wild type Drosophila. The series can be described thus: Egg-to-adult viability test of wild-type flies. The series is classed as in vivo. The note with it: 10 or 50 μM in fly food, 21.5° C. The method, then:
Eggs laid within 5 hr were collected and cultured in fly food containing 10 or 50 μM of respective peptides at 21.5° C. Viability from egg to adult was calculated as the number of adult flies collected divided by the number of eggs examined. Data are expressed as mean±S.E.M. for 3 independent experiments. NS indicates no significance.
Flies were raised at 21.5° C. on cornmeal medium supplemented with dry yeast. Fly lines bearing UAS-DsRedCAG0 and UAS-DsRedCAG100 were kind gifts of Professor Nancy Bonini (University of Pennsylvania, USA). The gmr-GAL4 fly line was obtained from Bloomington Drosophila Stock Center. For pseudopupil assay, third instar larvae were fed with various amount of respective peptides dissolved in 2% sucrose solution for 2 hr and then continued to culture in standard fly food at 21.5° C.^38. Pseudopupil assay was performed on 12 day-old adult flies as mentioned previously^39. Images were captured by SPOT Insight CCD camera controlled by the SPOT Advanced software (Diagnostic instruments Inc.). Image processing was performed using the Adobe Photoshop CS software (Adobe). Each experiment was repeated at least 3 times (n=10 fly heads), and consistent results were obtained. […] Viability from egg-to-adult was calculated as the number of adult flies collected divided by the number of eggs examined. […]

Another series deals with pre-rRNA. As to the kind of experiment: Real-time PCR of pre-rRNA level in DsRedCAG100 flies. The series is classed as in vivo, Drosophila. The note with it: 1 μM. The method, then:
Ribosomal RNA (rRNA) synthesis occurs within the nucleolus^15. It was previously shown that expanded CAG RNA induces nucleolar stress by preventing the nucleolar protein NCL from binding to the upstream control element of the rRNA promoter, leading to the downregulation of rRNA transcription^13. To investigate whether P3V8 suppressed neurotoxicity by alleviating expanded CAG RNA-induced nucleolar stress in vivo, the expression levels of pre-rRNA in were measured DsRedCAG100 flies treated with the peptide. […] This confirms that P3V8 subdued polyQ neurodegeneration in vivo by effective mitigation of the expanded CAG RNA-induced nucleolar stress.
(§1) RNA was extracted from cells or ten 12 day-old adult fly heads by Trizol reagent (Life Technologies), and 1 μg of purified RNA was then used for reverse-transcription using the ImPromII™ Reverse Transcription System (Promega). Random hexamer (Roche) was used as primers in reverse transcription. Taqman gene expression assays were performed on an ABI 7500 Real-time PCR system and data were analyzed as previously described^13. The following probes were used: pre-45s rRNA (Assay ID: AILJIZM), pre-rRNA (Assay ID: AIMSG5U), Drosophila GAPDH (Assay ID: Dm01841186) and human actin (Assay ID: Hs99999903_m1). Each experiment was repeated at least 3 times.

A further series addresses MJDCAG27 RNA. As to the kind of experiment: Isothermal titration calorimetry binding assay, unexpanded MJDCAG27 RNA. The method, then: To test whether P3V8 specifically targets expanded CAG RNA, ITC experiments were performed using unexpanded CAG RNA (MJDCAG27 RNA), expanded CAG RNA (MJDCAG78 RNA), and expanded CAA/G RNA (MJDCAA/G78 RNA), respectively, to investigate whether the binding of P3V8 is RNA expansion-dependent and sequence-dependent (Table 6).
Experiments were carried out using a MicroCal iTC200 isothermal titration calorimeter (GE Healthcare) at 25° C. Data were analyzed using the Origin® scientific plotting software version 7 (Microcal Software Inc.). All RNAs and peptides were dissolved in binding buffer (20 mM MOPS, pH 7.0; 300 mM NaCl) and 0.7 mM of peptide was titrated into 0.5 μM of RNA for each experiment. The concentration of RNA was estimated with appropriate extinction coefficients at 260 nm on a Nanodrop 2000 (Thermo Scientific). A reference power of 8 μcal/s was used with an initial 0.5 μl of injection of peptide followed by 2 μl for all subsequent titrations points with a 60 sec initial equilibrium delay and 150 sec pause between injections. The samples were stirred at a speed of 1000 rpm throughout the experiment. The thermal titration data were fitted to the ‘one binding site model’ to determine the dissociation constant (KD). Each experiment was repeated at least 3 times with consistent results obtained.

In the next series the test system is pre-45s rRNA. The series can be described thus: Real-time PCR of pre-45s rRNA level in EGFPCAG78 RNA-expressing HEK293 cells. The series is classed as cell-based, human. Conditions: with DeliverX. The method, then:
It was next investigated whether P3V8 could also mitigate expanded CAG RNA-induced toxicity in mammalian cells. […] To compare the inhibitory activity of P3WT and P3V8, the peptide transfection reagent DeliverX (DX) was used to deliver P3WT and P3V8 to EGFPCAG78 RNA-expressing HEK293 cells. […] To confirm that P3V8 inhibited expanded CAG RNA-mediated nucleolar stress, the levels of pre-45s rRNA were measured in EGFPCAG78 RNA-expressing cells with or without treatment of P3V8 (FIG. 3C). Overexpression of the expanded CAG RNA reduced the level of pre-45s rRNA to approximately 40% of the untransfected control.
as §1

Entries after “also recorded” stand apart in the source; their conditions may differ. Residues, ends and D or L forms follow the SMILES beside them. *: point of attachment. Palmitoyl = CCCCCCCCCCCCCCCC(=O)*

`CCCCCCCCCCCCCCCC(=O)N[C@@H](CC(=O)O)C(=O)NCC(=O)N[C@@H](CCCCN)C(=O)N[C@@H](CO)C(=O)N[C@@H](CCCCN)C(=O)NCC(=O)N[C@H](C(=O)N[C@@H](C)C(=O)N[C@@H](Cc1ccc(O)cc1)C(=O)N[C@H](C(=O)N[C@@H](CCC(=O)O)C(=O)N[C@@H](Cc1ccccc1)C(=O)N[C@@H](CCCCN)C(N)=O)[C@@H](C)CC)[C@@H](C)CC` [L1P3V8] (Palmitoyl-DGKSKGIAYIEFK-NH2): the “cytotoxicity (LDH release)” value in series [1] was “no cytotoxic effects; also recorded: no cytotoxicity”. Besides, the egg-to-adult viability entry in the series on wild type Drosophila was “no obvious alteration; also recorded: did not affect the viability”.

As to Ac-DGKSKGIAYIEFK-NH2 [P3V8], in the series with pre-rRNA, the pre-rRNA level entry was “fully recovered to the DsRedCAG0 control level”. For the same molecule, the Kd at MJDCAG27 RNA (ITC, 0.7 mM peptide into 0.5 μM MJDCAG27 RNA, mean ± S.E.M.) was determined as 2190 ± 270 nM. For the same molecule, in the series on MJDCAG27 RNA (unexpanded RNA vs expanded MJDCAG78 RNA), the “lower affinity than for expanded CAG RNA” value is 6-9 fold. In addition, the “pre-45s rRNA level” value in the series on pre-45s rRNA is listed as “dose-dependent restoration”.
